Our source for the GI50 and TGI values is PubChem BioAssay (NCI).

Molecules are shown by their SMILES. Values joined by “and” are separate entries in the source; they are usually repeats but may differ in a detail not shown here. Identical values can stand only once.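 Compound exposure: 48 hours, 5 concentrations, 96-well plates. GI50 = concentration required for 50% inhibition of growth. Definition used: TGI = concentration required for complete inhibition of growth.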

Common to all, as to experiment: NCI-60 cell line screen, 48 h
The test system of experiment [1] is NCI-H23 lung.
The test system of experiment [2] is CAKI-1 renal.
Experiment [3] concerns SK-OV-3 ovarian.
In experiment [4] the test system is HOP-62 NSCLC.
Experiment [5] deals with SR leukemia.
For experiment [6], the system named is SK-MEL-2 melanoma.
Experiment [7] relates to MCF7 breast.
In experiment [8] the test system is CCRF-CEM leukemia.
In experiment [9] the test system is OVCAR-3 ovarian.
For experiment [10], the system named is HOP-92 NSCLC.

On to `CCOc1ccn(-c2ccc(F)cc2)c(=O)c1C(=O)Nc1ccc(Oc2ccnc(N)c2Cl)c(F)c1`, for which the GI50 in experiment [1] was 10400 nM; in experiment [2] it was 7570 nM; in experiment [3], 11700 nM; in [4], 13200 nM; in experiment [5], 6170 nM; in experiment [6] it was 14000 nM. The GI50 in experiment [7] was 7890 nM; in [8] it was 3630 nM; in experiment [9], 24300 nM; in experiment [10], 801 nM. Besides, the TGI was greater than 100000 nM in experiment [1]; 56400 nM in experiment [2]; 41600 nM in experiment [3]; greater than 100000 nM in [4]; 28700 nM in experiment [5]; 35700 nM in experiment [6]. The TGI in [7] was greater than 100000 nM; in experiment [8], 36900 nM; in experiment [9] it was greater than 100000 nM; in experiment [10], 12300 nM.
For `CCOP(=O)(OCC)C(C(=O)OC)C(=O)C(=O)Nc1cccc(O)c1` (stereo unspecified), the TGI in [1], in experiment [2], in [3], in [4], in experiment [5] and in experiment [6] was greater than 100000 nM each time. Besides, the TGI in [7], in experiment [8], in experiment [9] and in [10] was greater than 100000 nM in each case.
For the compound `CCN(CC)CCCC(C)N/C(=C1\C(=O)NC(=O)\C1=C(/NC(C)CCCN(CC)CC)c1cccc(OC)c1)c1cccc(OC)c1` (stereo unspecified), the GI50 is 1190 nM in [1]; 1030 nM in experiment [2]; 1310 nM in [3]; 815 nM in [4]; 444 nM in experiment [5]; 947 nM in experiment [6]. The GI50 is 1030 nM in experiment [7], 816 nM in experiment [8], 1120 nM in [9] and 642 nM in experiment [10]. Moreover, the TGI was found to be 3150 nM in experiment [1]; 2520 nM in experiment [2]; 3920 nM in experiment [3]; 2270 nM in [4]; 2130 nM in experiment [5]; 1800 nM in [6]. Moreover, the TGI in experiment [7] came to 3560 nM; in experiment [8] it was 2890 nM; in [9] it was 3200 nM; in [10], 1760 nM.
As to `CC(=O)[C@H]1CCC/C=C/[C@@H]2C[C@H](O)C[C@H]2[C@H](O)/C=C/C(=O)O1`, the GI50 was 527 nM in experiment [1]; 645 nM in experiment [2]; 2430 nM in experiment [3]; 2080 nM in experiment [4]; 313 nM in experiment [5]; 689 nM in [6]. The GI50 in experiment [7] was 363 nM; in experiment [8] it was 395 nM; in experiment [9] it was 393 nM; in experiment [10] it was 4930 nM. Also, the TGI in experiment [1] was 5580 nM; in experiment [2] it was greater than 23300 nM; in experiment [3] it was greater than 31600 nM; in [4] it was greater than 30200 nM; in [5], 86900 nM; in [6], 2910 nM. Further, the TGI in experiment [7] was 5810 nM; in experiment [8], greater than 62700 nM; in experiment [9] it was 5010 nM; in experiment [10] it was greater than 100000 nM.
Take `CCCCCC/C=C\CCCCCCCCCC1=C(CN2CCN(C)CC2)C(=O)C=C(OC)C1=O`: the TGI in [1] was determined as 15400 nM; in experiment [2], 7030 nM; in [3] it was 25900 nM; in [4], 30700 nM; in experiment [5], 1810 nM; in [6], 18700 nM. The TGI came to 11600 nM in [7], 1950 nM in [8], 17300 nM in experiment [9] and 6260 nM in [10].
As to `CN1CCN(Cc2ccc(NC(=O)c3cncc(C#Cc4cnc(N)c5cccnc45)c3)cc2C(F)(F)F)CC1`, the GI50 was 496 nM in [1]; 203 nM in experiment [3]; 498 nM in experiment [4]; 293 nM in [5]; 120 nM in [6]; 690 nM in experiment [7]. The GI50 was 234 nM in [8], 589 nM in experiment [9] and 148 nM in experiment [10]. For the same compound, the TGI is greater than 50000 nM in experiment [1]; greater than 50000 nM in experiment [2]; greater than 50000 nM in experiment [3]; greater than 19100 nM in experiment [4]; greater than 50000 nM in [5]; 332 nM in experiment [6]. The TGI in [7] was greater than 50000 nM; in [8], greater than 50000 nM; in experiment [9], greater than 50000 nM; in experiment [10], 1160 nM.
Take `CC(=O)c1cc(C(=O)c2ccc3c(c2)Sc2ccccc2N3)n2ccccc12`: the GI50 in experiment [1] was 7.73 nM and 3.32 nM; in experiment [2], 3.68 nM and 3.69 nM; in experiment [3], 4.38 nM and 3.32 nM; in [4], 3.99 nM and 3.32 nM; in experiment [5], 4.59 nM and 3.32 nM; in [6] it was 4.77 nM. Also, the GI50 is 3.44 nM and 3.32 nM in experiment [7]; 3.3 nM and 3.32 nM in experiment [8]; 3.65 nM in [9]. Further, the TGI was greater than 33200 nM in experiment [1]; greater than 33200 nM in experiment [2]; 21500 nM in experiment [3]; greater than 33200 nM in [4]; greater than 33200 nM in experiment [5]; greater than 33200 nM in experiment [7]. In addition, the TGI in [8] is greater than 33200 nM; in experiment [10] it was 14500 nM.
